Data on 2 compounds can be found in publication PMC10944877, “Identification of dihydromyricetin as a natural DNA methylation inhibitor with rejuvenating activity in human skin” (Frontiers in Aging, 2024).

Assay [1] concerns the target T1, DNMT1 (Homo sapiens, UniProt P26358). In words: biochemical DNMT activity quantification kit (Abcam), three […] pure preparations, n = […].
Assay [2] deals with T1, DNMT1. In words: scintillation proximity methylation assay (SPA) screen with purified DNMT1; IC50 in Supplementary Figure S1A. Format: biochemical. On the set-up: full-length recombinant human DNMT1. (In general: Scintillation proximity formats need no separation of bound from free tracer.)

T1 sequence (P26358 whole entry): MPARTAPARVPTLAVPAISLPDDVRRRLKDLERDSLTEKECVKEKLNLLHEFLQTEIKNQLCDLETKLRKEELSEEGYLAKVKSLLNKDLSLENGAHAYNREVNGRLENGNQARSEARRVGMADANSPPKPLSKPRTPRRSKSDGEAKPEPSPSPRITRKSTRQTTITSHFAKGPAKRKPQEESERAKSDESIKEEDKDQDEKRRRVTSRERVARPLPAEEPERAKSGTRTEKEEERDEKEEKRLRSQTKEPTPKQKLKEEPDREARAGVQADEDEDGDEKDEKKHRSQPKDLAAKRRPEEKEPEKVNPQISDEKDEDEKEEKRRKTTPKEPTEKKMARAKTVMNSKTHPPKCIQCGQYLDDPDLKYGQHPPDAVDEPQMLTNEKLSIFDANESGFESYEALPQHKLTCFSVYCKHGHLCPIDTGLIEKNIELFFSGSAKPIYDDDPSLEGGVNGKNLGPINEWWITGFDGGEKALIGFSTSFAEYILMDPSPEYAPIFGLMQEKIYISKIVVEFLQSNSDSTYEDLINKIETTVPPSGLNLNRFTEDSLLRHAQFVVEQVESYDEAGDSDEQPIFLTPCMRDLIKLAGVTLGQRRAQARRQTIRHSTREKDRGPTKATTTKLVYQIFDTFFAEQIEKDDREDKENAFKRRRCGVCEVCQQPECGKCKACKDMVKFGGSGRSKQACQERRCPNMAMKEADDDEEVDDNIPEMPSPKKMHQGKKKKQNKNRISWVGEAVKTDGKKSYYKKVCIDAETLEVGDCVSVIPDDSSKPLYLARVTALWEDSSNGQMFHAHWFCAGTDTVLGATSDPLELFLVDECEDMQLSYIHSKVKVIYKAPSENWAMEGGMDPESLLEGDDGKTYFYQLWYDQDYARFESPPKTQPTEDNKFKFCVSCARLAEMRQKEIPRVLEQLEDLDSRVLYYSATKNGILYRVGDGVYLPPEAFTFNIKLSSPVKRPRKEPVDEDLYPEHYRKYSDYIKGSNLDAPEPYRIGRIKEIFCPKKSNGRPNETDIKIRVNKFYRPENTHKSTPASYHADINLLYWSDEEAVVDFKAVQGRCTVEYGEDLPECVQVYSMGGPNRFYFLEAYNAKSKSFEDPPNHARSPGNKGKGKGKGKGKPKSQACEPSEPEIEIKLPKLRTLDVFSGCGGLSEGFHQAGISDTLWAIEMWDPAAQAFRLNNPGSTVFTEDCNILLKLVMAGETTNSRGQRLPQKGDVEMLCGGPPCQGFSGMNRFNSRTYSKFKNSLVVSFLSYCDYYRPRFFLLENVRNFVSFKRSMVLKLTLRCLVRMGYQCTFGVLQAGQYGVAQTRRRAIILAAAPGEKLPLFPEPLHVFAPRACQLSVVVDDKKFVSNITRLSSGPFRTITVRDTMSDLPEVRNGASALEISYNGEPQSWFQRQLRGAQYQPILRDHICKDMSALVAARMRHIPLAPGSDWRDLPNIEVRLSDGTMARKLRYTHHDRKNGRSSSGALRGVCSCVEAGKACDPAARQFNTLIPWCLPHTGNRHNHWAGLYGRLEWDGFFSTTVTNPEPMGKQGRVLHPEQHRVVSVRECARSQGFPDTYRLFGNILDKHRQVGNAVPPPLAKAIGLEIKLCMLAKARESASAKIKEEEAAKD

Turning to `O=C1c2c(O)cc(O)cc2O[C@H](c2cc(O)c(O)c(O)c2)[C@H]1O` [DHM, 3,3′,4′,5,5’,7-hexahydroxy-2,3-dihydroflavanonol], at DNMT1 [1], the “biochemical DNMT activity quantification kit (Abcam), three >95% pure preparatio” value is reported as “DNMT1 inhibitory activity for DHM in the similar concentration range like myricetin (Figure 1D; Supplementary Figure S1B)”. One may read the IC50 as the concentration at which inhibition is half-maximal. With `O=c1c(O)c(-c2cc(O)c(O)c(O)c2)oc2cc(O)cc(O)c12` [Myr, myricetin], the IC50 on DNMT1 [2] amounted to 43.4 µM.
